Reference: US20100305098A1, “METHODS OF USE” (priority 2007, published 2010)

Legend:
D2 = biological target: T1, D2 (Homo sapiens, UniProt P14416); assay: FLIPR functional screen; format: cell-based; conditions: antagonist mode
T1 construct: Millipore

M1 = biological target: T2, M1 (Homo sapiens, UniProt P11229); assay: FLIPR functional screen; format: cell-based; conditions: antagonist mode
T2 construct: Millipore

S1P1 = biological target: T3, S1P1 (Homo sapiens, UniProt P21453); assay: FLIPR functional screen; format: cell-based; conditions: antagonist mode
T3 construct: Millipore
T3 sequence (P21453 whole entry, species assumed): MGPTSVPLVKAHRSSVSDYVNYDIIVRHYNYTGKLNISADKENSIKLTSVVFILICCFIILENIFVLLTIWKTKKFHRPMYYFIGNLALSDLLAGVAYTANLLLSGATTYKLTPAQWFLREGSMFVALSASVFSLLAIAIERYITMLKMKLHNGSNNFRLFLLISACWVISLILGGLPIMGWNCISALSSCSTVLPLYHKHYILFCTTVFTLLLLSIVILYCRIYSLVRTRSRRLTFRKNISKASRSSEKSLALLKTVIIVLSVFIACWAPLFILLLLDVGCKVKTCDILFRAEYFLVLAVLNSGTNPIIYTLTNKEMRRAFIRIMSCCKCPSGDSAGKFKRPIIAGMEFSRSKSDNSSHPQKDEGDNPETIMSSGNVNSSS

C3AR = biological target: T4, C3AR (Homo sapiens, UniProt Q16581); assay: FLIPR functional screen; format: cell-based; conditions: antagonist mode
T4 construct: Millipore
T4 sequence (Q16581 whole entry, species assumed): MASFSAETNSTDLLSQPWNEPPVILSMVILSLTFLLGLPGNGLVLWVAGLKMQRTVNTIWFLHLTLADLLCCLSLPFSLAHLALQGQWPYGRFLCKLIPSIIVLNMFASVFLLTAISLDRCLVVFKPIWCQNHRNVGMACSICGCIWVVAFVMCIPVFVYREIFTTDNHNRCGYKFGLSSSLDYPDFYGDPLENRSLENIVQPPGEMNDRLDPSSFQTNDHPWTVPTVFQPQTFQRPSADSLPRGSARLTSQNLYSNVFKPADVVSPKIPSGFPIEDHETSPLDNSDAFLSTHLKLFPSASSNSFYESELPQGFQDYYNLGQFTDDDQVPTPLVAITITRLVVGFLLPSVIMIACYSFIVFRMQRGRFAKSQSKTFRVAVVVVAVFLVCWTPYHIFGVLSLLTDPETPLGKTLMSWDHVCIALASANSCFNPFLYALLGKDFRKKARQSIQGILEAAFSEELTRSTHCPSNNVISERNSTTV

Leukotriene, BLT (LTB4) = biological target: T5, Leukotriene, BLT (LTB4) (Homo sapiens, UniProt Q15722); assay: Competitive radioligand binding (MDS Pharma)
T5 construct: purchased MDS Pharma (outsourced assay) 250510
T5 sequence (Q15722 whole entry): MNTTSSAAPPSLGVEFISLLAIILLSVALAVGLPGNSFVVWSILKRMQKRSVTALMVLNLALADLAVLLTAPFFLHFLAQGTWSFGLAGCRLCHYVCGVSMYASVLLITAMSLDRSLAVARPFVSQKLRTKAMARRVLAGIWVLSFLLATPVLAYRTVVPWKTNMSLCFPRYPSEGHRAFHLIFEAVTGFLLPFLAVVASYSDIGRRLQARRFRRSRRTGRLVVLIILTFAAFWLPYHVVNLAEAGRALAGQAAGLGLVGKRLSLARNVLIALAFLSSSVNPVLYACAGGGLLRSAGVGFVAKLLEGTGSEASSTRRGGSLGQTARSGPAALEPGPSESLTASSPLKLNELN

V1A = biological target: T6, V1A (Homo sapiens, UniProt P37288); assay: FLIPR functional screen; format: cell-based; conditions: antagonist mode
T6 construct: Millipore

S1P2 = biological target: T7, S1P2 (Homo sapiens, UniProt O95136); assay: FLIPR functional screen; format: cell-based; conditions: antagonist mode
T7 construct: Millipore

IP1 = biological target: T8, IP1 (Homo sapiens, UniProt P43119); assay: FLIPR functional screen; format: cell-based; conditions: antagonist mode
T8 construct: Millipore
T8 sequence (P43119 whole entry): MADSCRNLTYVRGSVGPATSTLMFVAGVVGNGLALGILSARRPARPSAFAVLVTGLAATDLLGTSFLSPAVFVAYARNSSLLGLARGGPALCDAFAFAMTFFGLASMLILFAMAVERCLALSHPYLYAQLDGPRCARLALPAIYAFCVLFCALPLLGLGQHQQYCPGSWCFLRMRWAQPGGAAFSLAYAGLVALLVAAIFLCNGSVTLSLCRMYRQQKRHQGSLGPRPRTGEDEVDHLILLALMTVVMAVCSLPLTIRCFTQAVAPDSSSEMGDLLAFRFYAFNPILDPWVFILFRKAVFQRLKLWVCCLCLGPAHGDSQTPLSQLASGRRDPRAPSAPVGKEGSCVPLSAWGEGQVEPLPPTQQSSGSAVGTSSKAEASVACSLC

ADRB3 = biological target: T9, ADRB3 (Homo sapiens, UniProt P13945); assay: FLIPR functional screen; format: cell-based; conditions: antagonist mode
T9 construct: purchased Millipore (outsourced screen)
T9 sequence (P13945 whole entry): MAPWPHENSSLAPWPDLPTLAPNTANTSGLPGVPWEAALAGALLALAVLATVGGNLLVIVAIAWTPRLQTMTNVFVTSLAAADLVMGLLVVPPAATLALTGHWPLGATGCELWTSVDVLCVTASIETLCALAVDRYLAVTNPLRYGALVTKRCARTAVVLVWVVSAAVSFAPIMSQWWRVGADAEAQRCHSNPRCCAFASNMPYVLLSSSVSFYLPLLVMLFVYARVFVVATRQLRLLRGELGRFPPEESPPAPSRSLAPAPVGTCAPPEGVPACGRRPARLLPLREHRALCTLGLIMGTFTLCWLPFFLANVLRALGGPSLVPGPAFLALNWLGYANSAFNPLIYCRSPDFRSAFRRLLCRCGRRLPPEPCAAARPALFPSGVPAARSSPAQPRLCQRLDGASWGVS

NOP = biological target: T10, NOP (Homo sapiens, UniProt P41146); assay: FLIPR functional screen; format: cell-based; conditions: antagonist mode
T10 construct: Millipore
T10 sequence (P41146 whole entry): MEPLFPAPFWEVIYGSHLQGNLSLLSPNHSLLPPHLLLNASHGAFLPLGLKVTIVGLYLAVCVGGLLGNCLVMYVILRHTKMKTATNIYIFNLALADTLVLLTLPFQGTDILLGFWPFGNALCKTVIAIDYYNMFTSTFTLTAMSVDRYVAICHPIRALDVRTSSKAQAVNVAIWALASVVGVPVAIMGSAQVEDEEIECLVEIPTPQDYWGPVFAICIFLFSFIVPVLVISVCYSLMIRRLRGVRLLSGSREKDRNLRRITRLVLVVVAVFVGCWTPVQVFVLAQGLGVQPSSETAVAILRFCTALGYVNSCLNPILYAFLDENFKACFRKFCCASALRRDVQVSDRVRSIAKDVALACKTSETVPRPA

OPRD1 = biological target: T11, OPRD1 (Homo sapiens, UniProt P41143); assay: FLIPR functional screen; format: cell-based; conditions: antagonist mode
T11 construct: Millipore

Prostanoid DP = biological target: T12, Prostanoid DP (Homo sapiens, UniProt Q13258); assay: Competitive radioligand binding (MDS Pharma)
T12 construct: purchased MDS Pharma (outsourced assay)
T12 sequence (Q13258 whole entry): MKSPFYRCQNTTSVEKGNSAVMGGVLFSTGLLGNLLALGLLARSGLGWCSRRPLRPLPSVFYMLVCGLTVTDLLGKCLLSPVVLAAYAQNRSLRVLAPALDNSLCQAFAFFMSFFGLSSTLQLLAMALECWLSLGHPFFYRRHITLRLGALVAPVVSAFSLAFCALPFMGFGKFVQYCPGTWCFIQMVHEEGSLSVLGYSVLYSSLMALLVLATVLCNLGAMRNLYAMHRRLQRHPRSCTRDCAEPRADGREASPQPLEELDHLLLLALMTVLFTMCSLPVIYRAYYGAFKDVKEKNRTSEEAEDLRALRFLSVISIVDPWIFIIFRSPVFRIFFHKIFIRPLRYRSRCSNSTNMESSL

PRP = biological target: T13, PRP (Homo sapiens, UniProt P49683); assay: FLIPR functional screen; format: cell-based; conditions: antagonist mode
T13 construct: Millipore
T13 sequence (P49683 whole entry): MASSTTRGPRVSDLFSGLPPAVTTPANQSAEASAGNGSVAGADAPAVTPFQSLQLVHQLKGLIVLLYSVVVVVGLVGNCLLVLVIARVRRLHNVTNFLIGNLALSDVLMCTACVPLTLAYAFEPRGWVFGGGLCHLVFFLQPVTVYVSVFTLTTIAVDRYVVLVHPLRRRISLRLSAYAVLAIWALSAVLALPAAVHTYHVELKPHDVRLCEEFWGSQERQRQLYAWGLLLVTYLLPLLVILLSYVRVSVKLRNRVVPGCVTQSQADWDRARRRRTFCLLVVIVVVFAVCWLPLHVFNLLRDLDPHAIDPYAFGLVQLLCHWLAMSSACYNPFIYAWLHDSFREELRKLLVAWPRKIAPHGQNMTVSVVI

GCGR = biological target: T14, GCGR (Homo sapiens, UniProt P47871); assay: FLIPR functional screen; format: cell-based; conditions: antagonist mode
T14 construct: Millipore
T14 sequence (P47871 26-477, species assumed): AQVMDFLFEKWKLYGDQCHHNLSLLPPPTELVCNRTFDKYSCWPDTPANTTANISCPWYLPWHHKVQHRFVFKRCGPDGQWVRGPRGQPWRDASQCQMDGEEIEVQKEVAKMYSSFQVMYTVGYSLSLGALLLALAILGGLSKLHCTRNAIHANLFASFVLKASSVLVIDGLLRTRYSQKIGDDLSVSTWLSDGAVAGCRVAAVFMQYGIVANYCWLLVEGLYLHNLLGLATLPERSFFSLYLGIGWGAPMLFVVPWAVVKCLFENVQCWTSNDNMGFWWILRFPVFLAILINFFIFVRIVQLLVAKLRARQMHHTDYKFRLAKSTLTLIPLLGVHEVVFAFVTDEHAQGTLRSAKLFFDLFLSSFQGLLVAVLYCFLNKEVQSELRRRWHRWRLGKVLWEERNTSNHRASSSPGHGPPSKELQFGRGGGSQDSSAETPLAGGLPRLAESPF

DP = biological target: T15, DP (Homo sapiens, UniProt Q13258); assay: FLIPR functional screen; format: cell-based; conditions: antagonist mode
T15 construct: Millipore
T15 sequence (Q13258 whole entry): as the sequence (Q13258 whole entry) above

D1 = biological target: T16, D1 (Homo sapiens, UniProt P21728); assay: FLIPR functional screen; format: cell-based; conditions: antagonist mode
T16 construct: Millipore

OPRM1 = biological target: T17, OPRM1 (Homo sapiens, UniProt P35372); assay: FLIPR functional screen; format: cell-based; conditions: antagonist mode
T17 construct: Millipore

V1B = biological target: T18, V1B (Homo sapiens, UniProt P47901); assay: FLIPR functional screen; format: cell-based; conditions: antagonist mode
T18 construct: Millipore

CCR10 = biological target: T19, CCR10 (Homo sapiens, UniProt P46092); assay: FLIPR functional screen; format: cell-based; conditions: antagonist mode
T19 construct: Millipore
T19 sequence (P46092 whole entry): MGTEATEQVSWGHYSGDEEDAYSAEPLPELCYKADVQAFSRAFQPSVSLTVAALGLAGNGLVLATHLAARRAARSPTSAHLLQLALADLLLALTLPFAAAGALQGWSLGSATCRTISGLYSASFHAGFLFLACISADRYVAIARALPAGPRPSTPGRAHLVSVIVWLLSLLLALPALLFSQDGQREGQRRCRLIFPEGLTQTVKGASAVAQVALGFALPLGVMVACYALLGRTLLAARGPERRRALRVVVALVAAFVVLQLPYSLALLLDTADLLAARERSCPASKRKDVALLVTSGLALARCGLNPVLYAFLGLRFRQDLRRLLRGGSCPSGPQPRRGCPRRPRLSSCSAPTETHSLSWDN

H2 = biological target: T20, H2 (Homo sapiens, UniProt P25021); assay: FLIPR functional screen; format: cell-based; conditions: antagonist mode
T20 construct: Millipore

M2 = biological target: T21, M2 (Homo sapiens, UniProt P08172); assay: FLIPR functional screen; format: cell-based; conditions: antagonist mode
T21 construct: Millipore

EP4 = biological target: T22, EP4 (Homo sapiens, UniProt P35408); assay: FLIPR functional screen; format: cell-based
T22 construct: SE302 cells that express endogenous EP4; endogenous in cells; host or cells: SE302 cells
T22 sequence (P35408 whole entry): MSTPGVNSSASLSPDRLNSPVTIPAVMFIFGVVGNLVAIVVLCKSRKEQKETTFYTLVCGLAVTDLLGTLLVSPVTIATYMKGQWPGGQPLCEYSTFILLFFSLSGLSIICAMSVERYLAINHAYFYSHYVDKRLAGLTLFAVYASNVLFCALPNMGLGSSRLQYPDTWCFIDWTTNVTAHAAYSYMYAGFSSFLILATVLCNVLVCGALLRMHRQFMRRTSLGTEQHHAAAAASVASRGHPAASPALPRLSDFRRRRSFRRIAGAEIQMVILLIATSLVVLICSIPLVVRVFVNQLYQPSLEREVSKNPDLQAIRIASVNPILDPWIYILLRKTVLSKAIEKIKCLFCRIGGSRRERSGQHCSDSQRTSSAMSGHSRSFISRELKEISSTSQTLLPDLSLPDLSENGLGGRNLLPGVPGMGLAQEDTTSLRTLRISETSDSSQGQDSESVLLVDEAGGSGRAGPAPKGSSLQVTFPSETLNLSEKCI

PAR4 = biological target: T23, PAR4 (Homo sapiens, UniProt Q96RI0); assay: FLIPR functional screen; format: cell-based; conditions: antagonist mode
T23 construct: Millipore

ADRB2 = biological target: T24, ADRB2 (Homo sapiens, UniProt P07550); assay: FLIPR functional screen; format: cell-based; conditions: antagonist mode
T24 construct: purchased Millipore (outsourced screen)

Mouse CD4+ T cells = assay: IL-23 induced Th17 expansion; format: cell-based; conditions: 120 h, anti-TCR/anti-CD28 mAb and IL-23 (30 ng/ml), 5 days, FACS, read-out: IC50 for reduction of IL-23-induced Th17-producing cells
Procedure: IL-23 induced Th17 expansion. CD4^+ T cells were isolated from C57BL/6 mice and activated with anti-TCR (1 μg/ml plate-bound) and anti-CD28 (2 μg/ml soluble) with or without IL-23 (30 ng/ml) for 5 days. IL-17 producing cells were analyzed by IL-17 intracellular staining as described by manufacture (BD).
The effect of ER-819924-01 on IL-23-induced Th17 expansion was studied in vitro (FIG. 9). Mouse CD4^+ T cells were cultured with anti-TCR/anti-CD28 mAb and IL-23 (30 ng/ml) in the presence or absence of ER-819924-01 or anti-PGE2 Ab for 5 days. IL-17 producing T cells were analyzed by FACS of intracellular staining. ER-819924-01 reduced the number of IL-23-induced Th17-producing cells with an IC50 value of ˜10-100 nM.

OT = biological target: T25, OT (Homo sapiens, UniProt P30559); assay: FLIPR functional screen; format: cell-based; conditions: antagonist mode
T25 construct: Millipore

S1P3 = biological target: T26, S1P3 (Homo sapiens, UniProt Q99500); assay: FLIPR functional screen; format: cell-based; conditions: antagonist mode
T26 construct: Millipore

TRH = biological target: T27, TRH (Homo sapiens, UniProt P34981); assay: FLIPR functional screen; format: cell-based; conditions: antagonist mode
T27 construct: Millipore

CB2 = biological target: T28, CB2 (Homo sapiens, UniProt P34972); assay: FLIPR functional screen; format: cell-based; conditions: antagonist mode
T28 construct: Millipore

GNRHR = biological target: T29, GNRHR (Homo sapiens, UniProt P30968); assay: FLIPR functional screen; format: cell-based; conditions: antagonist mode
T29 construct: Millipore

T2 sequence (P11229 whole entry): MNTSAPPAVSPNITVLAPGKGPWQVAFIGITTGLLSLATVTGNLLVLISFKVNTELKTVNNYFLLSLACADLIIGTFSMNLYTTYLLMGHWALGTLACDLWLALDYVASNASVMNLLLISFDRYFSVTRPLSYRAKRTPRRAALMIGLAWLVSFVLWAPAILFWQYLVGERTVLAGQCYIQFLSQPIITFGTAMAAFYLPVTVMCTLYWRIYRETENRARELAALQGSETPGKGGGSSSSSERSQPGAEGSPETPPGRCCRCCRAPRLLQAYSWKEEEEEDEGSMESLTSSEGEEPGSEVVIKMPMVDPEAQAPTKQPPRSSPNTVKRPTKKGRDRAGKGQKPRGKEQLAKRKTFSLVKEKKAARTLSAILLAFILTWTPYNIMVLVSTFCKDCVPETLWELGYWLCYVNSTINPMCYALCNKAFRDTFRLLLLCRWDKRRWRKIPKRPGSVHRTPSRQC

CCN1C(=O)N2Cc3cc(OC)cc(OC)c3[C@@H](C)C=C2C12CCN(Cc1cccn1C)CC2 [ER-819924-01]
inhibition at 1 µM (D2): -4.6%
inhibition at 1 µM (M1): 3.6%
inhibition at 1 µM (S1P1): 3.9%
inhibition at 1 µM (C3AR): -8.2%
% INHIBITION (Leukotriene, BLT (LTB4); CONC. 0.1 μm): −12%
% INHIBITION (Leukotriene, BLT (LTB4); CONC. 1 μm): −11%
inhibition at 1 µM (V1A): -3.9%
inhibition at 1 µM (S1P2): -0.5%
inhibition at 1 µM (IP1): 9.8%
inhibition at 1 µM (ADRB3): 11.4%
inhibition at 1 µM (NOP): 1%
inhibition at 1 µM (OPRD1): 5.7%
% INHIBITION (Prostanoid DP; CONC. 0.1 μm): 0%
% INHIBITION (Prostanoid DP; CONC. 1 μm): 13%
inhibition at 1 µM (PRP): 5.4%
inhibition at 1 µM (GCGR): 8.6%
inhibition at 1 µM (DP): -5.8%
inhibition at 1 µM (D1): 14%
inhibition at 1 µM (OPRM1): 35%
inhibition at 1 µM (V1B): 4.7%
inhibition at 1 µM (CCR10): 2.2%
inhibition at 1 µM (H2): 1.8%
inhibition at 1 µM (M2): 1.5%
activity in FLIPR functional screen versus other GPCR's (EP4; 1 μM, Millipore outsourced data): showed activity only against the EP4 receptor
inhibition at 1 µM (EP4; antagonist mode): 100%
inhibition at 1 µM (PAR4): -38.6%
inhibition at 1 µM (ADRB2): -2.3%
IC50 (Mouse CD4+ T cells): 10 to 100 nM
inhibition at 1 µM (OT): 4.6%
inhibition at 1 µM (S1P3): 8.9%
inhibition at 1 µM (TRH): -11.1%
inhibition at 1 µM (CB2): 9.3%
inhibition at 1 µM (GNRHR): 35.8%
